We go through one compound from patent US20070026090A1, “Treatment and prevention of inflammatory disease and mitochondrial dysfunction with high dose selenium” (priority 2003, published 2007).

Data set [1] has as its system mitochondrial respiration in colon tissue. The data set can be described thus: Mitochondrial respiration (oxygen consumption) in colon tissue of supplemented rats. The data set is classed as in vivo, rat. The method, then:
Mitochondrial respiration activity in colon tissue: Mitochondrial respiration was measured by direct assessment of oxygen consumption of the tissue. Briefly, colons were removed, chilled on ice, and washed extensively with cold PBS. Colon tissue samples (5-10 mm in width, 100 mg) were incubated at ambient temperature in PBS supplemented with 5 mM glucose. Oxygen consumption was measured polarographically using a computerized Clark-type oxygen electrode. The addition of the Electron Transport Chain (complex 1) inhibitor rotenone was used to determine whether the majority of oxygen consumption measured in the colon samples was mitochondrial respiration-dependent.

The next data set deals with cytochrome c. As to the kind of experiment: Cytochrome c protein in colon tissue (Western blot). Type of data set: in vivo, rat. An excerpt: Western blotting—analysis of Cytochrome c: Colon tissue samples were boiled and kept in sample buffer (Sigma-Aldrich Corp., St Louis, Mo.) immediately following isolation. For electrophoretic separation and immunodetection, the samples were reboiled, and subjected to SDS-PAGE followed by Western blot analysis. Briefly, separated proteins were transferred electrophoretically from the gel to a nitrocellulose membrane (Amersham International plc, Buckinghamshire, England). The membrane was blocked in TBS (0.15 M NaCl/10 mM Tris/HCl [pH7.4]) containing 5% (v/v) skim milk (Blotto), then incubated overnight with the primary antibody at 4° C. (diluted 1/1000 in Blotto). Following six washes in TBST (TBS containing 0.05% v/v Tween 20), the membrane was incubated for 2 hours at room temperature with the secondary antibody (diluted 1/1000 in Blotto). Immunoreactive bands were detected with ECL western blotting detection reagents and developed on film (Shilo et al., 2003). Separated proteins were transferred electrophoretically from the gel to a nitrocellulose membrane (Amersham International plc, Buckinghamshire, England). […] Immunoreactive bands were visualized by detection with ECL Western blotting detection reagents (ECL, Amersham Biosciences, Uppsala, Sweden) followed by exposure of film and quantitation by densitometry (Shilo et al., 2003).
(In western blotting, separated proteins are transferred to a membrane and probed.)

Another data set concerns mtTFA. As to the kind of experiment: mtTFA mRNA in colon tissue (RT-PCR). Type of data set: in vivo, rat. On the procedure: Mitochondrial (mt) TFA, NRF1, and cytochrome c mRNA analysis: Total RNA was extracted from 50 to 100 mg tissue at a time using 1 ml of Tri Reagent® (Sigma-Aldrich Corp., St. Louis, Mo.) according to manufacturer's instructions. First strand cDNA synthesis was carried out using reverse-iTTM First Strand Synthesis from Advanced Biotechnologies (ABgene®, ABgene, Epsom, U.K.) was used according to the manufacturer's instructions. Target sequences were amplified in the PCR reaction as follows: each tube contained 37 ng of cDNA from cytochrome c, GAPDH, or 18S, 3 μl of specific primers, 12.5 μl of ready Mix and 6.5 μl water DEPC (for a total 25 μl in each tube).
The PCR for cytochrome c, NRF1 and mtTFA was run at 95° C. for 5 min, 94° C. for 30 sec, 56° C. for 2 min, 72° C. for 1 min, back to stage 2 for 22, 26, 24 cycles, respectively, then 72° C. for 10 min, and 4° C. The products of the PCR were separated on a 1% agarose gel in TAE buffer with ethidium bromide. The electrophoresis took place in a BioRad device in 1×TAE buffer at 95 V for about 50 min (maximum mA). The size of the cDNA was determined by a 100-bp marker.
Rat mtTFA: (Antisense) 5′-[…]-3′ (SEQ ID No. 15) corresponding to nucleotides 756 to 777 of rat mtMTFA (GenBank Accession No. AJ312746).
(Sense): 5′-[…]-3′ (SEQ ID No. 16). The expected PCR product was 417 bp, the actual 417 bp.

The test system of data set [2] is glutathione peroxidase (GPx). As to the kind of experiment: GPx activity in macrophage cell extract. Type of data set: cell-based, murine. The conditions noted are these: 24 h; range 0.5-30 μM (FIG. 8B). The method, then: (§1) Cell culture: Murine J774.2 macrophages (kindly provided by Prof. Dov Zipori from the Weizmann Institute of Science) were grown in RPMI medium supplemented with 10% (w/v) fetal calf serum, penicillin (100 U/ml), streptomycin (100 μg/ml) and 1× glutamine at 37° C. in a humidified atmosphere consisting of 95% air and 5% CO2. Experiments were performed on cells at 60% confluence.
GPx activity: GPx activity was determined by following the rate of NADPH oxidation at 340 nm in the presence of the substrates: 3 mM glutathione (GSH), 1.2 U glutathione reductase (GR) and 1.5% H2O2, using a microfluorometer plate reader (GENios, Tecan, Austria). The reaction contained 500 μl Tris reaction buffer (100 mM Tris Hcl, 300 mM Kcl, 5 mM EDTA, 1 mM NaN3, pH 7.0), substrates and 100 μl cell extract. Macrophages were treated with selenium for 24 h. Wells were washed twice with PBS, cells permeabilized, and scraped using 200 μl 0.2% Triton X-100. The reaction was recorded every minute for 25 minutes. Slopes were calculated and the results were adjusted according to the protein amount calculated with the Bradford reagent.

The next data set deals with NF-κB. As to the kind of experiment: NF-κB binding in vitro, selenite added to nuclear extract (EMSA). Set-up: species or system murine. The conditions noted are these: 5 μM added to nuclear extract 5 minutes before (FIG. 12B). For orientation: Mobility shift assays separate free from complexed probe on a gel.
The test system of the next data set is J774.2 macrophages. The data set can be described thus: Mitochondrial membrane potential (CMTMRos, flow cytometry). The conditions noted are these: 10 μM; LPS + INFγ activated (FIG. 16B). Type of data set: cell-based, murine. On the procedure: as §1
Evaluation of mitochondrial membrane potential (MMP) in cells—MMP was detected by flow cytometry (FACSort, Becton Dickenson and Co., San Jose, Calif. USA) using the membrane potential-sensitive fluorescent probe MitoTracker Orange (CMTMRos) (Molecular Probes, Oregon, USA). The following fluorescence setting was used: excitation at 488 nm and emission at 575 nm (FL2 channel) (24,25). Macrophage cells (1 million cells/ml) were stained with 0.1 μM CMTMRos for 30 min at 37° C. Accumulation of the dye in the mitochondria was evaluated by flow cytometer analysis as described hereinabove. Data were collected from 10,000 cells.

The conditions of data set [3]: in vivo; cited from earlier work.

Structures are written as SMILES. Entries after “also recorded” stand apart in the source; their conditions may differ.

Protocol for NF-κB: Nuclear extracts: Nuclear Extracts were prepared using a slight modification of the method of Dignam et al (23). Treated cells were washed with cold PBS, scraped and centrifuged. Hypotonic buffer (1 ml, 20 mM HEPES pH 7.0, 10 mM KCl, 1 mM mGCl2, 0.5 mM DTT, 0.1% Triton X-100, 20% glycerol, 2 mM PMSP, 1 mg/ml Aprotonin and Leupeptin) was added to the cell pellets, the pellets were disrupted by pipetting, and centrifuged 3000 RPM for 5 min. The pellets were re-suspended in 100 μl cold extraction buffer (20 mM HEPES pH 7.0, 10 mM KCl, 1 mM mGCl2, 0.5 mM DTT, 0.1% Triton X-100, 20% glycerol, 2 mM PMSF, 1 mg/ml Aprotonin and Leupeptin, 420 mM NaCl). The samples were rotated for 20 min at 4° C., centrifuged 15,000 RPM for 10 min, and supernatants collected. Protein content was measured using Bradford reagent. Samples were stored frozen at minus 70° C.
Electromobility shift assay (EMSA)—Gel shift assays were performed according to the gel shift assay protocol from Promega Corp. (San Luis Obispo, Calif.). […] For each reaction, 2 μg of nuclear extract were incubated with 2 μl of 5× binding buffer for 5 min., 1 μl of the ^32P-labeled oligonucleotide was added at room temperature for 20 min., the samples were prepared by adding 1 μl of dye free loading buffer, and separated using 6% non-denaturing acrylamide gel electrophoresis. […]

Turning to `[Se]` [selenium], the “hapten-induced impairment in oxygen consumption” value in data set [1] (24 h after TNBS, supplemented vs unsupplemented (FIG. 5 C vs D), unsupplemented approximately 70% impairment) is “prevented a significant proportion”. Also, the “oxygen consumption in healthy colon tissue” value in data set [1] (healthy rats, supplemented vs unsupplemented (FIG. 5 B vs A)) is “little effect; also recorded: did not enhance”. In the data set with cytochrome c (24 h after TNBS, supplemented (FIG. 7B lane 4 vs lane 3)), the “inflammation-associated alterations of cytochrome c protein” value is “completely prevented”. Also, the “characteristics of cytochrome c protein, healthy uninduced rats” value in the data set on cytochrome c (FIG. 7B lane 1 vs lane 2) was “no effect”. Moreover, in the data set on mtTFA (24 h after TNBS, supplemented (FIG. 17 lane 4), unsupplemented nearly absolute loss), the “mtTFA levels in colon tissue, colitis-induced rats” value is recorded as “surpass that of healthy control rats”. Also, the “mtTFA levels in colon tissue, healthy rats” value in the data set with mtTFA (healthy supplemented rats (FIG. 17 lane 2)) is “significantly enhances”. In addition, the “concentration of maximum stimulation of GPx activity” value in data set [2] came out at 0.5 µM. In addition, in the data set with NF-κB, the “NF-κB binding in vitro” value is “directly inhibited”. The “mitochondrial membrane potential (MMP), activated macrophages” value in the data set with J774.2 macrophages was “downregulates”. Moreover, the “carcinogenesis in male mice” value in data set [3] was “unaffected”.
